For orientation: inhibition means the relative decrease from the control value, in per cent.

These results are taken from patent publication US8455440B2, “Combination anticoagulant therapy with a compound that acts as a factor Xa inhibitor” (Millennium Pharmaceuticals, Inc., priority 2007, dated 2013).

For data set [1], the system named is ADP induced platelet aggregation. In words: Ex vivo platelet aggregation induced by 10 μM ADP. The format is in vivo. Conditions: Rattus norvegicus, po, 72 h, clopidogrel 1 mg/kg, dosed orally for three days, read-out: inhibition of ADP induced platelet aggregation in platelet rich plasma. As for the experimental part: (§1) In this experiment, the ability of Compound A to maintain vessel patency under arterial flow conditions in ferric chloride induced thrombosis in rat carotid artery is compared to that achieved by clopidogrel. Compound A was administered by intravenous infusions and clopidogrel was dosed orally for three days. Ex vivo platelet aggregation induced by 10 μM ADP and clotting times (prothrombin time, PT and activated partial thromboplastin times, aPTT) were measured over the experimental time course (90 min) in all animals.
This level of platelet inhibition is approximately equivalent to that attained by clopidogrel's effect on human platelets at the therapeutic dose in clinical use (75 mg per day). […] Time to occlusion was measured in animals that had vessel occlusion.

Data set [2] relates to ferric chloride induced thrombosis in rat carotid artery. In words: Ferric chloride induced thrombosis in rat carotid artery. The data set is classed as in vivo.
The test system of data set [3] is systolic and diastolic blood pressure. In words: Telemetry blood pressure in conscious beagle dogs, three way crossover. The format is in vivo. As for the experimental part: The study design was a three way crossover with one week between doses to ensure complete elimination of residual agents from the dogs' circulatory system. […] Data acquisition and analysis was performed using LDS Life Science Suite Ponemah P3 plus V 4.20 software with results reported as 10 minute averages for each animal.
AUC was derived from the systolic and diastolic baseline. […] Negative values represent a decrease in blood pressure relative to the baseline value.

The subject of data set [4] is clotting times (prothrombin time, PT and activated partial thromboplastin times, aPTT). Description: Ex vivo clotting times (PT, aPTT) in the rat thrombosis model. The conditions noted are these: Compound A 0.03 μM, aspirin 3 mg/kg, or both. Here is the method:
as §1
as §1, with “The combination effect of an anticoagulant and anti-platelet agent, aspirin, was investigated in an in vivo model of thrombosis. […] In” for “In”, “aspirin.” for “clopidogrel.”, “aspirin” for “clopidogrel”, “administered as an intravenous bolus approximately 30 min prior to the start of the experiment.” for “dosed orally for three days.”, “μg/mL of collagen” for “μM ADP”

Another data set has as its system Interleukin 8. In words: Ex vivo cytokine release in human whole blood: interleukin 8. The data set is classed as cell-based. The conditions noted are these: ASA treated donors, no Compound A (Control = 100.0).
The test system of a further data set is thrombin generation. Description: Thrombin generation assay in platelet rich plasma (PRP). The data set is classed as biochemical, human. Conditions: ASA donors (aspirin for at least three days), 0 nM Compound A; normalized to Non-ASA at 0 nM. As for the experimental part: PRP and PPP were prepared by spinning the anticoagulated blood at ˜100×g or 1000×g for 20 minutes, respectively, at room temperature. Platelet counts in PRP were adjusted with homologous PPP to about 200,000 platelets/μL. For thrombin generation in 100 μL reaction mixture, 75 μL PRP was first mixed with CaCl2, convulxin, and Z-Gly-Gly-Arg-aminomethylcoumarin (Z-GGR-AMC, a thrombin fluorogenic substrate) for 3 minutes at 37° C., followed by adding tissue factor (Innovin, Dade Behring) to initiate the generation of thrombin. A typical reaction mixture contained 15 mM Ca^2+, 0.1 μg/mL convulxin, 100 μM Z-GGR-AMC, and 0.1 nM TF (tissue factor) (Innovin). Thrombin formation was monitored continuously at 37° C. by a fluorometric plate reader (Molecular Devices) measuring the relative fluorescence units (RFU). Inhibitors were pre-incubated with plasma for 20 minutes at room temperature before adding CaCl2 and convulxin.
Non-ASA represents result from donors free of aspirin. ASA represents results from donors taken aspirin for at least three days. % Inhibition was calculated by normalization of mean RFU (n=5) to Non-ASA at 0 nM Compound A.

The test system of data set [5] is collagen induced platelet aggregation. Description: Ex vivo platelet aggregation induced by 10 μg/mL of collagen. The conditions noted are these: Rattus norvegicus. The format is in vivo. As for the experimental part:
The combination effect of an anticoagulant and anti-platelet agent, aspirin, was investigated in an in vivo model of thrombosis. […] Ex vivo platelet aggregation induced by 10 μg/mL of collagen and clotting times (prothrombin time, PT and activated partial thromboplastin times, aPTT) were measured over the experimental time course (90 min) in all animals.

The next data set concerns human whole blood. In words: Real time perfusion chamber: whole blood perfused over collagen and tissue factor coated surface. The format is cell-based. Conditions: 2.4 μM eptifibatide alone (0 nM Compound A), shear rate 300 s^−1, five donors. Here is the method:
After the perfusion, the thrombotic activity was quantified by measurement of labeled fibrin produced as a result of fibrinogen cleavage during the activation of platelets and the blood coagulation system. For this series of experiments in five healthy human volunteers, blood was obtained by venipuncture and treated with 2.4 μM eptifibatide. The dose of eptifibatide corresponds to the plasma concentration attained by therapeutic concentrations of the GPIIb/IIIa inhibitor.

In data set [6] the test system is venous thromboembolism (VTE). In words: Prospective randomized trial for prevention of venous thromboembolic events after total knee replacement. Conditions: Enoxaparin 30 mg bid subcutaneous, 10-14 days, n = 41.
Excerpt: Safety endpoints included the incidence of major and clinically significant nonmajor bleeds through the day after venography. All efficacy and bleeding endpoints were adjudicated by a blinded, independent central adjudication committee.
Another data set deals with pooled human plasma. In words: Ex vivo clotting assays (aPTT) in pooled human plasma. The data set is classed as biochemical. The conditions noted are these: 0.5 U/mL enoxaparin.
[7] abbreviates: Dog # 1, oral, Compound A 3 mg/kg, verapamil 10 mg/kg.
Setting [8] is: Dog # 2, oral, Compound A 3 mg/kg, verapamil 10 mg/kg.
The mark [9] stands for this setting: Dog # 3, oral, Compound A 3 mg/kg, verapamil 10 mg/kg.
Where [10] appears, read: following verapamil or placebo administration ([…]), relative to baseline.
Setting [11] is: three dogs, oral, Compound A 3 mg/kg, verapamil 10 mg/kg.

Positions of bridges follow the written chain, without caps; N, C: chain ends. Non-standard residues stand in square brackets, D forms with d. Residues, ends and D or L forms follow the SMILES beside them. hArg = N=C(N)NCCCC[C@H](N)C(=O)O; Mpa = O=C(O)CCS

Description for Interleukin 8: An ex vivo assay system of human cytokine release was used to test whether inhibition of factor Xa should augment the effect of reduction of inflammation elicited by standard anti-inflammatory drugs, such as aspirin.
At the end of the activation period, blood samples were centrifuged at 13,000 rpm (15,000 g) for 5 min in an Eppendorf 5415G centrifuge. Plasma was removed, treated with protease inhibitor cocktail (Roche) and stored frozen at −80° C. Cytokines released from the blood cells were quantitated in a Multiplexed Biomarker Immunoassay for Luminex Instrumentation (Millipore USA).

As to `COC(=O)[C@H](c1ccccc1Cl)N1CCc2sccc2C1` [Clopidogrel, reference compound], the inhibition at 1 mg/kg in data set [1] turned out to be 46%. In addition, the “% Animals that did not occlude” value in [2] (clopidogrel 0.01 mg/kg (sub-therapeutic dose), oral) was found to be 10%. Further, the “inhibition of rat thrombosis (animals that did not occlude)” value in data set [2] (clopidogrel 1 mg/kg, dosed orally for three days) was determined as 89%.
On to `COc1ccc(CCN(C)CCCC(C#N)(c2ccc(OC)c(OC)c2)C(C)C)cc1OC` (stereo not drawn) [Verapamil, reference compound], for which, in data set [3] (setting [7]), the “Lowest Diastolic Blood Pressure Post-Dosing” value is recorded as 65.11 mmHg and the “Lowest Systolic Blood Pressure Post-Dosing” value was 137.18 mmHg. In data set [3] (setting [8]), the “Lowest Diastolic Blood Pressure Post-Dosing” value is reported as 62.47 mmHg and the “Lowest Systolic Blood Pressure Post-Dosing” value was determined as 111.90 mmHg. For the same molecule, in data set [3] (setting [9]), the “Lowest Diastolic Blood Pressure Post-Dosing” value is recorded as 51.94 mmHg and the “Lowest Systolic Blood Pressure Post-Dosing” value was found to be 95.52 mmHg. Further, the “decrease of diastolic blood pressure” value in [3] (Verapamil 10 mg/kg as a single agent, within one hour of oral administration) turned out to be 33%. Moreover, in data set [3] (setting [10]), the “Mean Area Under the Curve for Diastolic Pressure (AUCP), Mean ± S.D.” value is listed as −3077.8 ± 1845.51 mmHg * min and the “Mean Area Under the Curve for Systolic Pressure (AUCP), Mean ± S.D.” value is on record as −1133.6 ± 1134.7 mmHg * min. Besides, the “Mean Area Under the Curve for Diastolic Pressure (AUCP), Mean ± S.D.” value in data set [3] (following verapamil or placebo administration ([…]), relative to baseline, listed as verapamil) is listed as −3079±1846 mmHg * min. In addition, in [3] (setting [11]), the “Lowest Diastolic Blood Pressure Post-Dosing, Mean ± S.D.” value is reported as 59.84 ± 6.97^1 mmHg and the “Lowest Systolic Blood Pressure Post-Dosing, Mean ± S.D.” value amounted to 114.87 ± 20.99 mmHg.
With `CC(=O)Oc1ccccc1C(=O)O` [aspirin, acetylsalicylic acid, reference compound], in [4], the “APTT Ratio” value was determined as 1.02 and the “PT ratio” value came out at 1.01. In addition, the “Percent Release of IL8” value in the data set with Interleukin 8 is listed as 66.7%. In addition, in the data set with thrombin generation, the “% Inhibition of thrombin generation” value is 21.5%. Besides, in data set [5] (aspirin 1.0 mg/kg iv bolus), the inhibition at 1 mg/kg is less than 2%. Moreover, in data set [5] (aspirin 3 mg/kg iv bolus, read-out: inhibition of collagen induced platelet aggregation in platelet rich plasma), the inhibition at 3 mg/kg turned out to be 35%. The inhibition at 10 mg/kg in [5] (aspirin 10 mg/kg iv bolus) came to 77%. For the same molecule, the “% DNO (inhibition of rat thrombosis)” value in data set [2] (Compound A 0.03 μM iv infusion, aspirin 3 mg/kg iv bolus, or both) came out at 30%. Moreover, the “animals that did not occlude” value in [2] (aspirin 1.0 mg/kg iv bolus) turned out to be 10%. Also, the “inhibition of rat thrombosis (animals that did not occlude)” value in [2] (aspirin 10 mg/kg iv bolus) was 33.3%. For the same molecule, in [2] (average for animals that occluded, Compound A 0.03 μM, aspirin 3 mg/kg, or both), the “TTO (Time to occlusion)” value came to 31.61 ± 10.91 min. Further, the “DNO (did not occlude)” value in data set [2] (number of 10 animals, Compound A 0.03 μM iv infusion, aspirin 3 mg/kg iv bolus, or both) stood at 3.
Take `N=C(N)NCCCC[C@@H]1NC(=O)CCSSC[C@@H](C(N)=O)NC(=O)[C@@H]2CCCN2C(=O)[C@H](Cc2c[nH]c3ccccc23)NC(=O)[C@H](CC(=O)O)NC(=O)CNC1=O` [eptifibatide, reference compound] ([Mpa][hArg]GDWPC-NH2; disulfide 1-7): the “Mean Fluorescence” value in the data set with human whole blood is 118.0.
In data set [6], Enoxaparin [reference compound] had a VTE % of 10%. Also, the “activated partial thromboplastin time (aPTT)” value in the data set on pooled human plasma came out at 55 s.
